Measured values published in US20230172897A1, “METHODS OF TREATING BREAST CANCERS WITH SELECTIVE ANDROGEN RECEPTOR MODULATORS AND ADDITIONAL THERAPEUTIC AGENTS” (VERU, INC., priority 2021, published 2023).

Key:
MCF7 palboR cells = experiment: Proliferation of palbociclib resistant MCF-7 cells; type: cell-based
Description: (§1) Data were presented as mean values±s.e.m. […] Data represented the mean±s.e.m. of four replicate cell culture wells per condition. […] P values are indicated by gray asterisks, where ****P<0.0001 for all highlighted comparisons.
(§2) Tissue samples from an ER-positive, PR-negative, and HER2-negative (ER^+, PR^−, HER2^−) patient that progressed on (i.e., was resistant to) palbociclib were implanted into animal (NSG mice) models and grown as a patient-derived xenograft (PDX). […] This human tumor model also had amplification of the cyclin D1 (CCND1^Amp) gene which has been implicated as a driver of therapeutic resistance to CDKi. […] This is also observed in other models tested in vitro including a palbociclib resistant MCF-7 (MCF7 palbo^R) line (FIG. 44B).

GAR15-13 PDX = GAR15-13 PDX model of CDKi resistance in NSG mice; type: in vivo; settings: palbociclib-resistant patient tumor
Description: as §1, §2

GR = biological target: T1, GR (Rattus norvegicus, UniProt P06536); experiment: Transcriptional activation (luciferase) in HEK-293 cells; type: cell-based
T1 construct: expressed in transfected cells
Description: (§3) Rat GR, MR, PR, ER-α and ER-β were individually cloned into a pCR3.1 vector backbone. Sequencing was performed to verify the absence of any mutations. HEK-293 cells were plated at 90,000 cells per well of a 24 well plate in Dulbecco's Minimal Essential Media supplemented with 5% charcoal-stripped FBS. […] Luciferase assays were performed 48 h after transfection. Transcriptional activation values are represented as firefly luciferase normalized to renilla luciferase.

MR = biological target: T2, MR (Rattus norvegicus, UniProt P22199); experiment: as above; type: cell-based
T2 construct: expressed in transfected cells
T2 sequence (P22199 1-981): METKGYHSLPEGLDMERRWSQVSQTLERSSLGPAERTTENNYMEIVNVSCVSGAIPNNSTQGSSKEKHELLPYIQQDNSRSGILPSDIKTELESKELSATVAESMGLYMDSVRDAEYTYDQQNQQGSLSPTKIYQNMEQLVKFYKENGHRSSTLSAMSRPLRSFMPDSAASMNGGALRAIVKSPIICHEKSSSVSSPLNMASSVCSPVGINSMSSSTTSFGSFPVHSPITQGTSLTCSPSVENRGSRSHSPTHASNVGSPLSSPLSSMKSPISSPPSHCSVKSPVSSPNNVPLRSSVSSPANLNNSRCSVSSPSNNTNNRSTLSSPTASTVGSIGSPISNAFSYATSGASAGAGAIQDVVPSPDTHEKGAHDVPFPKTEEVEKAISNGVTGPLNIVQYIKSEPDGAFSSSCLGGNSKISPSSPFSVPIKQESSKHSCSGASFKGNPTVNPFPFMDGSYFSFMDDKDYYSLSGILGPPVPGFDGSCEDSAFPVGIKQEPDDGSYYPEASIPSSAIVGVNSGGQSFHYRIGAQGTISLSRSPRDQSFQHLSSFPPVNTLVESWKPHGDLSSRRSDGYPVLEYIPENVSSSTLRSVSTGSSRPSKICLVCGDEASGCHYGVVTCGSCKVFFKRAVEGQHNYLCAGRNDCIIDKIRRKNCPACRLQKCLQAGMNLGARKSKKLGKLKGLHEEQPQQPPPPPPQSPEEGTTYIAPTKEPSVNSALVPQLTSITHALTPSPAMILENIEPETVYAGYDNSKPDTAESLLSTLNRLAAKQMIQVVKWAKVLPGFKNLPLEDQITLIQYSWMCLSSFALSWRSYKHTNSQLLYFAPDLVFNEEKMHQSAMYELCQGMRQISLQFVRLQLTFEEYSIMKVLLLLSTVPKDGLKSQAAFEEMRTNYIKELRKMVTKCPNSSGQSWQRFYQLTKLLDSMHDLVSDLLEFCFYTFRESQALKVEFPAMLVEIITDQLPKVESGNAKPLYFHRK
Description: as §3

PR = biological target: T3, PR (Rattus norvegicus, UniProt Q63449); experiment: as above; type: cell-based
T3 construct: expressed in transfected cells
T3 sequence (Q63449 1-923): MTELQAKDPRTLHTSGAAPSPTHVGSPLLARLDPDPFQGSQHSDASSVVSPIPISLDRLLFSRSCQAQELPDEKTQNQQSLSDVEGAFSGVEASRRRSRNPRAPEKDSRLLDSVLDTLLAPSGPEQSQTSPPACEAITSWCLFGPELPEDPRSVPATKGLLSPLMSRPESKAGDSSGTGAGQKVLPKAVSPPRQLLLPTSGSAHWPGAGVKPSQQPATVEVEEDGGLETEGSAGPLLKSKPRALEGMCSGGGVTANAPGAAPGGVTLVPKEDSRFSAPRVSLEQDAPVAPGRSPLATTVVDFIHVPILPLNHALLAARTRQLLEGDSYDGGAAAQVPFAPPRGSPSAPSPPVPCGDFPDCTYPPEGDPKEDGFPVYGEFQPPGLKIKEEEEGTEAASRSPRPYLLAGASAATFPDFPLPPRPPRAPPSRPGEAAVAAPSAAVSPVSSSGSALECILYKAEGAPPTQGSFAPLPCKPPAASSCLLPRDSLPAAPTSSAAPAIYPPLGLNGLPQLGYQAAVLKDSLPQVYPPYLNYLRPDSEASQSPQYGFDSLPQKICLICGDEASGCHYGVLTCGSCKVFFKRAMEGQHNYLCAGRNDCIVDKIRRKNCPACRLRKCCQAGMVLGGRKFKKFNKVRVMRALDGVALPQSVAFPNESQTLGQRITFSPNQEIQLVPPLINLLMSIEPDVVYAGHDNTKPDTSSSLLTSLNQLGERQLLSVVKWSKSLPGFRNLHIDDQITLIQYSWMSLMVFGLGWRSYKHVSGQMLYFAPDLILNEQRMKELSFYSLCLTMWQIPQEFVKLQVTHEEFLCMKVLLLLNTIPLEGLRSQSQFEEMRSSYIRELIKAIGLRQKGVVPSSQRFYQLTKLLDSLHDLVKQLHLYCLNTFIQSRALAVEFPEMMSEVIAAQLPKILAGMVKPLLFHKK
Description: as §3

ER-α = biological target: T4, ER-α (Rattus norvegicus, UniProt P06211); experiment: as above; type: cell-based
T4 construct: expressed in transfected cells
Description: as §3

[1] = agonist mode, all tested concentrations

T4 sequence (P06211 whole entry): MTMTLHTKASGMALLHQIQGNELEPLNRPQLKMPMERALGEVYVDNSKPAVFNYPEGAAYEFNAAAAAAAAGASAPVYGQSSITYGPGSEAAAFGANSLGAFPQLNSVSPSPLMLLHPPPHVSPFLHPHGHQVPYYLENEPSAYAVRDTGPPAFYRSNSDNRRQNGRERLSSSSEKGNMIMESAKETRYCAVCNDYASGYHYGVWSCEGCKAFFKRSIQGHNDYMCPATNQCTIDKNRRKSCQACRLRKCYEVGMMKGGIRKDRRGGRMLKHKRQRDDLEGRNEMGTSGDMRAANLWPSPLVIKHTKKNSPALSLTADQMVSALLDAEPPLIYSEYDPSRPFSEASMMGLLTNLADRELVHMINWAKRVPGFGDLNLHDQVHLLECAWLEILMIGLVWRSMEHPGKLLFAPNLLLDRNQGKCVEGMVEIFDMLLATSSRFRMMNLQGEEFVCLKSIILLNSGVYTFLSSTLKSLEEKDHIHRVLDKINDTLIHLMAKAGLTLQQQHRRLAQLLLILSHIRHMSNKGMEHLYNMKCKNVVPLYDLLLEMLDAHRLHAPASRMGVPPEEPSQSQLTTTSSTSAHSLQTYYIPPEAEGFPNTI
T1 sequence (P06536 whole entry): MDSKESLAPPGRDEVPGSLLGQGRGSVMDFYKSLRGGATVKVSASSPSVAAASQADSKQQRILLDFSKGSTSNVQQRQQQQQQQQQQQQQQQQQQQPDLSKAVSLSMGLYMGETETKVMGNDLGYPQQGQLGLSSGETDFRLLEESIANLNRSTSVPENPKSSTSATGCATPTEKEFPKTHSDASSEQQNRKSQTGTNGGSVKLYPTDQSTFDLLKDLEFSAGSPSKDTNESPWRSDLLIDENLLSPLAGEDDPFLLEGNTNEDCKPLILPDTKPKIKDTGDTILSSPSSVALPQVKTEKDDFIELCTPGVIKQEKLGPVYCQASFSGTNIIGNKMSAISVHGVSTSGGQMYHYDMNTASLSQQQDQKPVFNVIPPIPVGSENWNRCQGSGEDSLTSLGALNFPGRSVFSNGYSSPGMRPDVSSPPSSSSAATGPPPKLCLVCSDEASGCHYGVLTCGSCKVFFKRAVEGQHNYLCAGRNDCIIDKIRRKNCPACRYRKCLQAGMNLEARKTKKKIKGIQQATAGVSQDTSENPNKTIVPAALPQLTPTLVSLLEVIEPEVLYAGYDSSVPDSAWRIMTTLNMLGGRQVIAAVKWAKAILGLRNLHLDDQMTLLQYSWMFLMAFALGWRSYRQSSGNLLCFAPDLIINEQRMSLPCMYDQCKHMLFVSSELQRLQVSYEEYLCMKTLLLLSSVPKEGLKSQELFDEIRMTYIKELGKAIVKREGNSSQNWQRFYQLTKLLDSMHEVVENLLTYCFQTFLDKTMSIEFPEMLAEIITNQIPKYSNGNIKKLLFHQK

| SMILES | activity on proliferation of MCF7 palboR cells (MCF7 palboR cells) | GAR15-13 PDX tumor growth (GAR15-13 PDX) | GR-mediated transactivation (GR; [1]) | dexamethasone-induced GR-mediated transactivation (GR; antagonist mode) | MR-mediated transactivation (MR; [1]) | aldosterone-induced MR-mediated transactivation (MR; antagonist mode) | fold weaker than the endogenous agonist for PR (PR; agonist mode) | increase of PR transactivation (PR; agonist mode, 1 μM) [fold] | increase of PR transactivation (PR; agonist mode, 10 μM) [fold] | PR antagonist potency in comparison to Formula IX (times more potent) (PR; antagonist mode) [times] | PR antagonist potency in comparison to R-enantiomer of Formula IX (times more potent) (PR; antagonist mode) [times] | PR antagonist potency in comparison to RU486 (fold weaker) (PR; antagonist mode) | inhibition of PR activity, dose response (PR; antagonist mode) | ER-α-mediated transactivation (ER-α; agonist mode, highest tested concentration 1 μM) | 17β-estradiol-induced ER-α activity (ER-α; antagonist mode) |
| --- | --- | --- | --- | --- | --- | --- | --- | --- | --- | --- | --- | --- | --- | --- | --- |
| C[C@](O)(COc1ccc(C#N)cc1)C(=O)Nc1ccc(C#N)c(C(F)(F)F)c1 [Formula IX, (S)—N-(4-Cyano-3-(trifluoromethyl)phenyl)-3-(4-cyanophenoxy)-2-hydroxy-2-methylpropanamide] | modest activity | responsive |  |  |  |  |  |  |  |  |  |  |  |  |  |
| C[C@](O)(COc1ccc(C#N)cc1)C(=O)Nc1ccc(C#N)c(Cl)c1 [Formula VIII, (S)—N-(3-chloro-4-cyanophenyl)-3-(4-cyanophenoxy)-2-hydroxy-2-methylpropanamide] |  |  | did not induce | failed to alter | did not induce | failed to alter | greater than 10,000 fold | 3 | 8 | 10 | 100 | about 1,000 fold | potent partial inhibition | failed to activate | failed to alter |
